According to patent US9302999B2, “Substituted triazoles as herbicides” (E. I. DU PONT DE NEMOURS AND COMPANY, priority 2012, dated 2016):

Key:
Assay type in all cases: in vivo
[1] = tested on: pigweed (Amaranthus retroflexus); test: Test C pre-/postemergence: pigweed
In short: (§1)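 Visual injury scored 0–100 (100 = complete control) against untreated controls after 13–15 greenhouse days. Surfactant-containing solvent formulations applied either to soil after sowing (loam/sand) or over 1- to 4-leaf plants, 2–18 cm tall.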

[2] = tested on: winter wheat (Triticum aestivum); test: Test C pre-/postemergence: winter wheat
In short: as §1

[3] = tested on: nutsedge, yellow (yellow nutsedge, Cyperus esculentus); test: Test C pre-/postemergence: nutsedge, yellow
In short: as §1

soybean (Glycine max) = test: Test C pre-/postemergence: soybean
In short: as §1

[4] = tested on: blackgrass (Alopecurus myosuroides); test: Test C pre-/postemergence: blackgrass
In short: as §1

[5] = tested on: velvetleaf (Abutilon theophrasti); test: Test A pre-/postemergence: velvetleaf
In short: (§2)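 Visual 0–100 injury ratings (0 no effect, 100 complete control) taken about ten days after treatment, relative to untreated controls. Preemergence treatment was a directed soil spray; postemergence plants were 2–10 cm tall at one- to two-leaf stage. Soil: loam/sand blend.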

[6] = tested on: velvetleaf (Abutilon theophrasti); test: Test C pre-/postemergence: velvetleaf
In short: as §1

[7] = tested on: crabgrass, large (large crabgrass, Digitaria sanguinalis); test: Test A pre-/postemergence: crabgrass, large
In short: as §2

[8] = tested on: foxtail, giant (giant foxtail, Setaria faberii); test: Test A pre-/postemergence: foxtail, giant
In short: as §2

[9] = tested on: foxtail, giant (giant foxtail, Setaria faberii); test: Test C pre-/postemergence: foxtail, giant
In short: as §1

[10] = tested on: lambsquarters (Chenopodium album); test: Test C pre-/postemergence: lambsquarters; details: Postemergence
In short: as §1

[11] = tested on: galium (catchweed bedstraw, Galium aparine); test: Test C pre-/postemergence: galium
In short: as §1

[12] = Postemergence, 31 g ai/ha, scale 0 to 100 (0 no effect, 100 complete control)
[13] = Postemergence, 62 g ai/ha, scale 0 to 100 (0 no effect, 100 complete control)
[14] = Postemergence, 125 g ai/ha, scale 0 to 100, 0 no effect, 100 complete control
[15] = Postemergence, 250 g ai/ha, scale 0 to 100
[16] = Preemergence, 31 g ai/ha, scale of 0 to 100, 0 is no effect, 100 is complete control
[17] = Preemergence, 62 g ai/ha, scale of 0 to 100, 0 is no effect, 100 is complete control
[18] = Preemergence, 125 g ai/ha, scale 0 to 100, 0 no effect, 100 complete control
[19] = Preemergence, 250 g ai/ha, scale 0 to 100, 0 no effect, 100 complete control
[20] = Postemergence, 125 g ai/ha, 0 to 100 scale, 0 is no effect, 100 is complete control
[21] = Postemergence, 500 g ai/ha, visual rating on 0 to 100 scale (0 no effect, 100 complete control), approximately ten days
[22] = Preemergence, 125 g ai/ha, 0 to 100 scale where 0 is no effect and 100 is complete control
[23] = Preemergence, 500 g ai/ha, 0 to 100 scale (0 no effect, 100 complete control)

Cc1nn(-c2ccc(C(F)(F)F)c(F)c2)nc1Cc1ccnc(C(F)(F)F)c1 [Compound 162]
80: Plant response rating, Blackgrass [4, 13] | Plant response rating, Velvetleaf [6, 17] | Plant response rating, Galium [11, 14]
55: Plant response rating, Velvetleaf [6, 13] | Plant response rating, Velvetleaf [6, 16] | Plant response rating, Foxtail, Giant [9, 13]
0: Plant response rating, Nutsedge, Yellow [3, 16] | Plant response rating, Nutsedge, Yellow [3, 17]
95: Plant response rating, Pigweed [1, 15] | Plant response rating, Soybean (soybean (Glycine max); [15]) | Plant response rating, Blackgrass [4, 19] | Plant response rating, Lambsquarters ([10]; 31 g ai/ha, scale 0 to 100 (0 no effect, 100 complete control)) | Plant response rating, Lambsquarters ([10]; 62 g ai/ha, scale 0 to 100 (0 no effect, 100 complete control)) | Plant response rating, Galium [11, 15]
15: Plant response rating, Soybean (soybean (Glycine max); [16]) | Plant response rating, Soybean (soybean (Glycine max); [17])
98: Plant response rating, Foxtail, Giant [9, 15] | Plant response rating, Foxtail, Giant [9, 16] | Plant response rating, Lambsquarters ([10]; 125 g ai/ha, scale 0 to 100, 0 no effect, 100 complete control) | Plant response rating, Lambsquarters ([10]; 250 g ai/ha, scale 0 to 100)
20: Plant response rating, Wheat [2, 12] | Plant response rating, Wheat [2, 13] | Plant response rating, Wheat [2, 18]
75: Plant response rating, Soybean (soybean (Glycine max); [14]) | Plant response rating, Galium [11, 12] | Plant response rating, Galium [11, 13]
35: Plant response rating, Wheat [2, 19] | Plant response rating, Velvetleaf [6, 12]
60: Plant response rating, Blackgrass [4, 16] | Plant response rating, Velvetleaf [6, 14]
65: Plant response rating, Foxtail, Giant [9, 14]
70: Plant response rating, Soybean (soybean (Glycine max); [12]) | Plant response rating, Soybean (soybean (Glycine max); [13])
85: Plant response rating, Pigweed [1, 12] | Plant response rating, Pigweed [1, 13] | Plant response rating, Blackgrass [4, 14] | Plant response rating, Velvetleaf [6, 15]
10: Plant response rating, Nutsedge, Yellow [3, 15]
25: Plant response rating, Wheat [2, 14] | Plant response rating, Wheat [2, 15] | Plant response rating, Soybean (soybean (Glycine max); [19])
100: Plant response rating, Pigweed [1, 16] | Plant response rating, Pigweed [1, 17] | Plant response rating, Pigweed [1, 18] | Plant response rating, Pigweed [1, 19] | Velvetleaf plant response rating [5, 21] | Plant response rating, Velvetleaf [5, 22] | Plant response rating, Velvetleaf [5, 23] | Plant response rating, Velvetleaf [6, 18] | Plant response rating, Velvetleaf [6, 19] | Plant response rating, Crabgrass, Large [7, 22] | Plant response rating, Crabgrass, Large [7, 23] | Plant response rating, Foxtail, Giant [8, 22] | Plant response rating, Foxtail, Giant [8, 23] | Plant response rating, Foxtail, Giant [9, 17] | Plant response rating, Foxtail, Giant [9, 18] | Plant response rating, Foxtail, Giant [9, 19] | Plant response rating, Galium [11, 16] | Plant response rating, Galium [11, 18] | Plant response rating, Galium [11, 19]
90: Plant response rating, Pigweed [1, 14] | Plant response rating, Blackgrass [4, 15] | Plant response rating, Blackgrass [4, 17] | Plant response rating, Blackgrass [4, 18] | Plant response rating, Velvetleaf [5, 20] | Plant response rating, Crabgrass, Large [7, 20] | Crabgrass, Large plant response rating [7, 21] | Plant response rating, Foxtail, Giant [8, 20] | Foxtail, Giant plant response rating [8, 21]
5: Plant response rating, Wheat [2, 17] | Plant response rating, Nutsedge, Yellow [3, 12] | Plant response rating, Nutsedge, Yellow [3, 13] | Plant response rating, Nutsedge, Yellow [3, 14] | Plant response rating, Nutsedge, Yellow [3, 18] | Plant response rating, Nutsedge, Yellow [3, 19]
45: Plant response rating, Blackgrass [4, 12] | Plant response rating, Foxtail, Giant [9, 12]
